Reference: publication PMC3411353 (Tetrahedron letters, 2010)
Square brackets hold non-standard residues; d marks the D form. Peptide text beside a SMILES is read from it.

Legend:
KOR [1] = conditions: after a single injection, result in words; ref [1a]; cited from earlier work
KOR [2] = target: KOR (Mus musculus, UniProt P33534); experiment: competition radioligand-binding assay, KOR, [^3H]U69,593, mouse brain membranes

Row | Compound | duration of antagonist activity (KOR [1]) | Ki (KOR [2]) [nM]
1 | NC(N)=Nc1ccc2[nH]c3c(c2c1)C[C@@]1(O)[C@H]2Cc4ccc(O)c5c4[C@@]1(CCN2CC1CC1)[C@H]3O5 [GNTI, 5′-guanidinonaltrindole] | lasting for weeks to more than a month | –
2 | CC(C)[C@@H](CN1CC[C@@](C)(c2cccc(O)c2)[C@@H](C)C1)NC(=O)[C@H]1Cc2ccc(O)cc2CN1 [JDTic, (3R)-7-hydroxy-N-[(1S)-1-[[(3R,4R)-4-(3-hydroxyphenyl)-3,4-dimethyl-1-piperidinyl]methyl]-2-methylpropyl]-1,2,3,4-tetrahydro-3-isoquinolinecarboxamide] | lasting for weeks to more than a month | –
3 | O=C1N[C@@H](Cc2ccccc2)C(=O)N2CCC[C@@H]2C(=O)N[C@@H](Cc2ccccc2)C(=O)N[C@H]1Cc1c[nH]c2ccccc12 [L-Trp isomer, cyclo[Phe-D-Pro-Phe-Trp]] (cyclo(FWF[dP])) | – | 21.2 ± 5.6
4 | Oc1ccc2c3c1O[C@H]1c4[nH]c5c(c4C[C@@]4(O)[C@@H](C2)N(CC2CC2)CC[C@]314)C[C@@]1(O)[C@H]2Cc3ccc(O)c4c3[C@@]1(CCN2CC1CC1)[C@H]5O4 [norBNI, norbinaltorphimine] | lasting for weeks to more than a month | –
